Results on eight compounds are retold here after ChEMBL document CHEMBL5137025, “Tuberculosis Drug Discovery: Challenges and New Horizons” (J Med Chem, 2022).

Converted amounts (≈) assume the structure as drawn.

Assay [1] has as its system Mycobacterium tuberculosis. In words: Antibacterial activity against Mycobacterium tuberculosis assessed as reduction in resistance generation frequency. It is filed as functional.
Assay [2] deals with Mycobacterium tuberculosis. In words: Antibacterial activity against Mycobacterium tuberculosis Erdman (TMCC 107) in Mtb infection C3HeB/FeJ mouse model assessed as reduction in resistance generation frequency administered for 8 weeks relative to control. It is filed as functional. Details: scale not given: the % may be the effect or the level left.
Assay [3] concerns Mycobacterium tuberculosis. In words: Antibacterial activity against EMB-resistant Mycobacterium tuberculosis assessed as inhibition of bacterial growth. It is filed as functional.
The subject of assay [4] is Mycobacterium tuberculosis. In words: microbe, parasite or virus in culture.
For assay [5], the system named is Mycobacterium tuberculosis. In words: microbe, parasite or virus in culture. The source holds these as a separate data set.
The test system of assay [6] is Mycobacterium tuberculosis. In words: Antibacterial activity against multidrug-resistant Mycobacterium tuberculosis clinical isolate assessed as inhibition of bacterial growth in presence of SMARt-420. It is filed as functional.
In assay [7] the test system is Mycobacterium tuberculosis. In words: Antibacterial activity against Mycobacterium tuberculosis Erdman (TMCC 107) assessed as reduction in resistance generation frequency. It is filed as functional.
Assay [8] deals with Mycobacterium tuberculosis. In words: Antibacterial activity against extensively drug-resistant Mycobacterium tuberculosis clinical isolate assessed as inhibition of bacterial growth in presence of SMARt-420. It is filed as functional.
For assay [9], the system named is Mycobacterium tuberculosis. In words: Antibacterial activity against Ethionamide-resistant Mycobacterium tuberculosis Beijing strain in acute Mtb infection BALB/c mouse model assessed as reduction in log10 CFU in lungs at 50 mg/kg, po for 3 weeks in presence of Ethionamide. It is filed as functional.

`Cc1ccn(C(C)c2nnc(Nc3ccn(Cc4c(F)cccc4Cl)n3)s2)n1` (stereo not drawn): the Activity in assay [1] was 4 10^-8No_unit.
Still for that read-out and setting: then `Cc1n[nH]c2ccc(NS(=O)(=O)CCCCF)cc12`, with 6 10^-8No_unit.
Regarding `NNC(=O)c1ccncc1` [ISONIAZID], the values for the Activity in assay [2] and in [1] were 29% and 4 10^-5No_unit, respectively.
As to `CC(C)=CCC/C(C)=C/CNCCNC1C2CC3CC(C2)CC1C3` (stereo not drawn) [SQ109], the MIC in [3] turned out to be 2.4 µM (≈ 0.793 µg/mL).
In the case of `CCc1cc(C(N)=S)ccn1` [ETHIONAMIDE], the MIC in [4] and in [5] was 48 µM (≈ 7.98 µg/mL) throughout.
Consider `CCNC(=N)NC(=O)Nc1c(CC)cccc1CC`, for which the Activity in [1] is more than 1.5 log10CFU.
Regarding `CCS(=O)(=O)N1N=Cc2ccc(Oc3ccc(C(F)(F)F)cc3/C=N/O)cc2B1O`, the MIC in assay [6] and in [8] was 0.15 µM in each case. In addition, the results for the Activity in assay [2] and in assay [7] were 0.04% and 4 10^-7No_unit, respectively.
Turning to `O=C(CCC(F)(F)F)N1CCC2(CC1)CC(c1ccccc1)=NO2`, the Activity in [9] stood at 4 log10CFU.
